Laboratory results from ChEMBL document CHEMBL1121801, “Salicylamide derivatives related to medroxalol with alpha- and beta-adrenergic antagonist and antihypertension activity” (J Med Chem, 1981).

Columns and labels:
Oryctolagus cuniculus = species: Oryctolagus cuniculus; experiment: Ratio of pA2 for beta-adrenergic receptor to that of alpha-adrenergic receptor
[1] = biological target: T1, Adrenergic receptor alpha-1 (Homo sapiens, UniProt P35348+P25100+P35368); experiment: In vitro blocking activity against alpha adrenergic receptor, isolated from rabbit aortic strip; format: protein assay, Oryctolagus cuniculus
T1 sequence (P35348 whole entry): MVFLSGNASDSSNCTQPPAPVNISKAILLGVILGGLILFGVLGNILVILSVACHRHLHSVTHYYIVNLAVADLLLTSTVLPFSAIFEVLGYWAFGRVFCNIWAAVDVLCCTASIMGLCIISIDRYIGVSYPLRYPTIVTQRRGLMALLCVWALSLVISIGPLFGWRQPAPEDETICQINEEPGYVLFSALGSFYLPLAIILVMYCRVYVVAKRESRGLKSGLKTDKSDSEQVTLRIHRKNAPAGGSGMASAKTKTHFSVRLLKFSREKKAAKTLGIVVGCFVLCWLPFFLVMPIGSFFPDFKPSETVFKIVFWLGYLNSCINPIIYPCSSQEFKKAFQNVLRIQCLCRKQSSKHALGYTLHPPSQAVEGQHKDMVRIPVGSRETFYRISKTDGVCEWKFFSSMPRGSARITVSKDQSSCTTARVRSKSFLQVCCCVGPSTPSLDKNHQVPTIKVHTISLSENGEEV
T1 sequence (P25100 whole entry): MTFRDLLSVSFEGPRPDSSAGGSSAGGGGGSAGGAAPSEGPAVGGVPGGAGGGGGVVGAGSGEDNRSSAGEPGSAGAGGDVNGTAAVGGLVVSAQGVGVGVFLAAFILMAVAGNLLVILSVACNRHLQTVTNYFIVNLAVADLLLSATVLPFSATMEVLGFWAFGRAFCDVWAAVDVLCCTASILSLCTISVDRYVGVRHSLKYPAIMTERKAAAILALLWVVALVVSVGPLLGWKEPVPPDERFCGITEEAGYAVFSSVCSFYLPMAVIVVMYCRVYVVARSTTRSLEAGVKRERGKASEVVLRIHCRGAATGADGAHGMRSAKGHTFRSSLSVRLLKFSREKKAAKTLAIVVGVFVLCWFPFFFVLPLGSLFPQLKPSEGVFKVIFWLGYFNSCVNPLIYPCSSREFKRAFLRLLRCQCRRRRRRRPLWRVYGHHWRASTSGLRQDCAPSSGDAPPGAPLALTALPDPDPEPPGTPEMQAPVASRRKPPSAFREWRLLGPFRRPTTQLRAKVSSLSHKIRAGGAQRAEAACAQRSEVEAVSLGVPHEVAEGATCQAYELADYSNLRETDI
T1 sequence (P35368 whole entry): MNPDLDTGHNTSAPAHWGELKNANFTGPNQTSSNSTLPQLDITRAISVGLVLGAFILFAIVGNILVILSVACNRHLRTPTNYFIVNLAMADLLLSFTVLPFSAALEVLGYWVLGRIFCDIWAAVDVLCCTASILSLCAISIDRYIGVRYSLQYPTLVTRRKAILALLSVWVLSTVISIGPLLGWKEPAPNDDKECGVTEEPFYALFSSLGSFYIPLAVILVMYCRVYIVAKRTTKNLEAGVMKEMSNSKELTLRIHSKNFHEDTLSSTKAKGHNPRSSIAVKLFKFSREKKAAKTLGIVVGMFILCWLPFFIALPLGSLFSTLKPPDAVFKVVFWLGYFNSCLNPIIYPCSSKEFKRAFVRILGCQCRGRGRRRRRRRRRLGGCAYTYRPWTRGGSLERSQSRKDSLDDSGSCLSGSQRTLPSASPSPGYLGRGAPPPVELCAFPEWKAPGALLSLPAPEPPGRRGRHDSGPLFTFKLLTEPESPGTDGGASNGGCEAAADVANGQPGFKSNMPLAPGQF

Rattus norvegicus [2] = experiment: Antihypertensive activity in spontaneously hypertensive rats(SHR) at 50 mg/kg peroral dose after 1 h, expressed as decrease in systolic blood pressure; format: functional, Artery; conditions: route oral
Adrenergic receptor beta = Adrenergic receptor beta (Homo sapiens, UniProt P08588+P07550+P13945); experiment: In vitro blocking activity against beta adrenergic receptor, isolated from guinea pig atria; format: protein assay
Cavia porcellus = species: Cavia porcellus; experiment: spasmolytic activity in isolated guinea pig ileum preparation;- log KB; (Bacl2); format: functional, organism-based; conditions: read-out: pA2 (converted)
Rattus norvegicus [3] = experiment: Antihypertensive activity in spontaneously hypertensive rats(SHR) at 50 mg/kg peroral dose after 4 h, expressed as decrease in systolic blood pressure; format: functional, Artery; conditions: route oral
[4] = biological target: Adrenergic receptor alpha (Homo sapiens) (UniProt P35348+P08913+P18825+P25100+P35368+P18089); conditions: Canis lupus familiaris
Description: In vivo sympatholytic activity (phenylephrine-induced vasopressor response) at alpha-adrenergic receptor in anesthetized dog, iv

[5] = biological target: Beta-2 adrenergic receptor (Canis lupus familiaris) (UniProt P54833);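 also: Beta-2 blockade of isoproterenol-induced vasodepression in anesthetized dogs, given intravenously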
Chain of Beta-2 adrenergic receptor (Canis lupus familiaris) (P54833 whole entry, looked up): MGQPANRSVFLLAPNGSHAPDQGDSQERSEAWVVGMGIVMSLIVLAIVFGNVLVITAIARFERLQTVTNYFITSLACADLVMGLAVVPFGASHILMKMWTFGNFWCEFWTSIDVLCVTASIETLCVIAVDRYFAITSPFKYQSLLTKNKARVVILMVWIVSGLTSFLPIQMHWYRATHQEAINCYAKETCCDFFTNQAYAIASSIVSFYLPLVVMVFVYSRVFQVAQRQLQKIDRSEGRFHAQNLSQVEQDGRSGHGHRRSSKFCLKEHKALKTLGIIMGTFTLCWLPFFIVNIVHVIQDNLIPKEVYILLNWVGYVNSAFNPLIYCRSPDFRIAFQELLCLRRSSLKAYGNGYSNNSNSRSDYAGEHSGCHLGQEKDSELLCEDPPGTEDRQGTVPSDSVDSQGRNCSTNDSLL
Description: In vivo sympatholytic activity (isoproterenol-induced vasodepression) at beta 2-adrenergic receptor in anesthetized dog, iv

[6] = biological target: Beta-1 adrenergic receptor (Homo sapiens) (UniProt P08588); conditions: Canis lupus familiaris;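 also: anesthetized dogs dosed intravenously, sympatholytic action measured as inhibition of the chronotropic response to isoproterenol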
Chain of Beta-1 adrenergic receptor (Homo sapiens) (P08588 whole entry, looked up): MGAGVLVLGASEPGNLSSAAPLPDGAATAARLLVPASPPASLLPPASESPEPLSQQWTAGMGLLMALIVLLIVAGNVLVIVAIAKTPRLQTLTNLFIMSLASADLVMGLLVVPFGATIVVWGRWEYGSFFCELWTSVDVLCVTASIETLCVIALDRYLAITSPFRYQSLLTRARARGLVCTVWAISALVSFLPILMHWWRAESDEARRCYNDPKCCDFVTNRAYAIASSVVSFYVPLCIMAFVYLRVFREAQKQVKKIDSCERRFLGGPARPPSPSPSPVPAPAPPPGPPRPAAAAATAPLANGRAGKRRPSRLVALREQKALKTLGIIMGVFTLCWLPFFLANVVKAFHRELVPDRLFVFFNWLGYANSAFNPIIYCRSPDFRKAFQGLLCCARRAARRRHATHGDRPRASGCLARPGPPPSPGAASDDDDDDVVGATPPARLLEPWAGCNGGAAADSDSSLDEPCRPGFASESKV
Description: In vivo sympatholytic activity (isoproterenol-induced chronotropy) at beta 1-adrenergic receptor in anesthetized dog, iv

Row | Compound | Ratio (Oryctolagus cuniculus) | pA2 [1] | BP decrease (Rattus norvegicus [2]) [mmHg] | pA2 (Adrenergic receptor beta) | Kb (Cavia porcellus) [µM] | BP decrease (Rattus norvegicus [3]) [mmHg] | DR10 [4] [mg/kg] | DR10 [5] [mg/kg] | DR10 [6] [mg/kg]
1 | Cc1ccccc1N1CCN(CC(O)c2ccc(O)c(C3N=NN=N3)c2)CC1 (stereo not drawn) | 0.04 | 7.56 | 48 | 6.14 | > 100 | 47 |  |  | 
2 | COC(=O)c1cc(C(O)CNC(C)(C)CCc2ccc3c(c2)OCO3)ccc1O.Cl (stereo not drawn) |  | < 5 | 41 | 6.55 | 2.63 | 39 |  |  | 
3 | COC(=O)c1cc(C(O)CNC(C)CCc2ccc3c(c2)OCO3)ccc1O.Cl (stereo not drawn) | 78 | 5.73 | 56 | 7.62 | 0.126 | 53 | 5.82 | 5.46 | 2.19
4 | CC(CCc1ccccc1)NC(C)C(O)c1ccc(O)cc1.Cl (stereo not drawn) [NYLIDRIN HYDROCHLORIDE] |  |  | 54 |  |  | 51 |  |  | 
5 | COc1ccc(N2CCN(CC(O)c3ccc(O)c(C(N)=O)c3)CC2)cc1.Cl.Cl (stereo not drawn) | 0.5 | 6.13 | 10 | 5.84 | > 52.5 | 7 |  |  | 
6 | CCNC(=O)c1cc(C(O)CN2CCC(n3c(O)nc4ccccc43)CC2)ccc1O.Cl (stereo not drawn) | < 0.06 | 6.63 | 22 | < 5.38 | 6.92 | 51 |  |  | 
7 | CC(CCc1ccc2c(c1)OCO2)NCC(O)c1ccc(O)c(C(=O)N(C)C)c1.Cl (stereo not drawn) | 56 | 5.46 | 24 | 7.21 | 8.71 | 22 |  |  | 
8 | CC(CCc1ccc2c(c1)OCO2)NCC(O)c1ccc(O)c(C(=O)O)c1.Cl (stereo not drawn) | 0.8 | 5.2 | 6 | 5.1 | > 100 | 5 |  |  | 
9 | COC(=O)c1cc(C(O)CN2CCN(c3ccccc3C)CC2)ccc1O.Cl (stereo not drawn) | 0.2 | 7.45 | 5 | 6.79 | 0.871 | 6 |  |  | 
10 | Cc1ccccc1N1CCN(CC(O)c2ccc(O)c(C(=O)NCC(C)(C)C)c2)CC1.Cl (stereo not drawn) | 0.1 | 7.21 | 41 | 6.33 | 0.224 | 32 |  |  | 
11 | Cl.NC(=O)c1cc(C(O)CN2CCC(n3c(O)nc4ccccc43)CC2)ccc1O (stereo not drawn) | 0.06 | 6.7 | 6 | 5.45 | > 61.7 | 15 |  |  | 
12 | COc1ccccc1N1CCN(CC(O)c2ccc(O)c(C(N)=O)c2)CC1.Cl (stereo not drawn) | 0.1 | 7.42 | 45 | 6.44 | 13.5 | 35 |  |  | 
13 | COc1ccc(C(O)CN2CCN(c3ccccc3OC)CC2)cc1C(N)=O.Cl (stereo not drawn) | 0.04 | 6.8 | 56 | 5.41 | 33.1 | 46 |  |  | 
14 | CNC(=O)c1cc(C(O)CN2CCN(c3ccccc3OC)CC2)ccc1O.Cl (stereo not drawn) |  | 7.95 | 44 |  | 9.55 | 52 |  |  | 
15 | CC(C)(CCc1ccc2c(c1)OCO2)NCC(O)c1ccc(O)c(C(N)=O)c1.Cl (stereo not drawn) | 69 | 5.31 | 43 | 7.15 | 0.676 | 61 |  | 0.76 | 2.1
